From ChEMBL document CHEMBL1137247, “Derivatives of 7-amino-1,2,3,4-tetrahydroisoquinoline and isophthalic acids as novel fibrinogen receptor antagonists” (Bioorg Med Chem Lett, 2006)

What was measured:
[1] = target: Integrin alpha-IIb/beta-3 (Homo sapiens); assay: Displacement of FITC-Fg from integrin alphaIIbbeta3 receptor expressed in human activated platelets
Plasma = assay: Inhibition of ADP-induced platelet aggregation in human platelet-rich plasma by Born's method

| Structure (SMILES) | IC50 [1] | IC50 (Plasma) |
| --- | --- | --- |
| O=C(O)CC(NC(=O)c1cccc(C(=O)Nc2ccc3c(c2)CNCC3)c1)c1ccccc1 (stereo unspecified) | 1 nM | 25 nM |
| COc1ccc(C(CC(=O)O)NC(=O)c2cc(C(=O)Nc3ccc4c(c3)CNCC4)cc([N+](=O)[O-])c2)cc1 (stereo unspecified) | 5 nM | 450 nM |
| COc1ccc(C(CC(=O)O)NC(=O)c2cccc(C(=O)Nc3ccc4c(c3)CNCC4)c2)cc1OC (stereo unspecified) | 0.7 nM | 11.6 nM |
| O=C(O)CC(NC(=O)c1cc(C(=O)Nc2ccc3c(c2)CNCC3)cc([N+](=O)[O-])c1)c1ccccc1 (stereo unspecified) | 8 nM | 710 nM |
| O=C(O)CCNC(=O)c1cc(C(=O)Nc2ccc3c(c2)CNCC3)cc([N+](=O)[O-])c1 | 32 nM | 2300 nM |
| O=C(O)CCNC(=O)c1cccc(C(=O)Nc2ccc3c(c2)CNCC3)c1 | 9 nM | 78 nM |
| COc1ccc(C(CC(=O)O)NC(=O)c2cc(C(=O)Nc3ccc4c(c3)CNCC4)cc([N+](=O)[O-])c2)cc1OC (stereo unspecified) | 3.7 nM | 340 nM |
| COc1ccc(C(CC(=O)O)NC(=O)c2cccc(C(=O)Nc3ccc4c(c3)CNCC4)c2)cc1 (stereo unspecified) | 0.8 nM | 17 nM |
